Test results taken from patent US20230172901A1, “COMPOSITIONS AND METHODS FOR THE PROPHYLAXIS AND TREATMENT OF FIBROTIC AND INFLAMMATORY CONDITIONS” (GRETALS AUSTRALIA PTY LTD, priority 2020, published 2023).
“Also recorded” adds a separate entry of the source.

Test system: sheep model for pulmonary fibrosis, bleomycin-injured lung segments
Assay: Example 2: CD4+ and CD8+ T cells in lung parenchyma (immunohistochemistry)
Type: in vivo
Text: In this study, a total of 10 sheep were used. Fibrosis in two lung segments of each sheep in a similar manner as performed in Example 1 herein. Using this procedure (as detailed further below) the fibrosis was confined to small, isolated regions in the lungs leaving the remaining 90-95% of the healthy unaffected lungs to undertake normal respiratory function.
All sheep (n=10) in the study were challenged with 2 single doses of bleomycin (3 units) per lung segment, a fortnight apart and the animals were kept for a little over 5 weeks after the final bleomycin dose. Bleomycin is a well-known agent for inducing fibrosis in the lungs. The administration procedure involves inserting a bronchoscope into lung segments in the right and left lung, and then slowly infusing the bleomycin into two segments as shown in FIG. 2 via the bronchoscope biopsy port.
In the study detailed in Example 1 herein, the dose-rate of pinocembrin was 7 mg pinocembrin per sheep, per week.
For control purposes the lung segment in the opposite lung was used as a bleomycin-positive, without drug, control, as indicated in FIG. 1. The bioactive molecules in vehicle, were delivered as 5 ml infusions through the biopsy port of the bronchoscope. Note that to nullify any small differences (e.g. physiological or anatomical etc.) between the left and right lungs, the infusions of pinocembrin were randomized between the left and right caudal lung segments. Half the animals (5 sheep) received pinocembrin to the right caudal lung segments, while the other 5 sheep received pinocembrin to the left caudal lung segments. The right medial lung segment was left untreated and used for healthy lung control tissue which was sampled at autopsy (FIG. 2). […]
Immunohistochemistry was performed on these frozen tissue sections using the indirect immunoperoxidase technique. […] For cell counts, either 200 immunoperoxidase positive cells were counted in a maximum of 20 microscope fields (×400 magnification) using an area-calibrated grid, or a minimum of 20 microscope fields were counted for less frequent counts.

[1] = week 12 post-mortem, vs bleomycin alone, 4 weekly infusions of 7 mg, n=10 sheep

Question: Which results are given for `O=C1CC(c2ccccc2)Oc2cc(O)cc(O)c21` (stereo not drawn) [pinocembrin, 5,7-Dihydroxy-2-Phenyl-2,3-Dihydro-4H-Chromen-4-One]?
Answer: sheep with lower CD8+ and CD4+ T cells after pinocembrin treatment (individual sheep data, 10 sheep): All sheep; numbers of CD4+ T cells in the lung parenchyma [1]: significantly lower; also recorded: significant reduction; numbers of CD8+ T cells in the lung parenchyma [1]: significantly lower; also recorded: significant reduction
